Data as given in patent publication US12552767B2, “3-heteroaryl pyrrolidine and piperidine orexin receptor agonists” (Merck Sharp & Dohme LLC, priority 2020, dated 2026).

Target: T1, human OX2R (Homo sapiens, UniProt O43614)
T1 construct: expressed in transfected cells; host or cells: CHO (Chinese hamster ovary) cells, grown under G418 selection
T1 sequence (O43614 1-444): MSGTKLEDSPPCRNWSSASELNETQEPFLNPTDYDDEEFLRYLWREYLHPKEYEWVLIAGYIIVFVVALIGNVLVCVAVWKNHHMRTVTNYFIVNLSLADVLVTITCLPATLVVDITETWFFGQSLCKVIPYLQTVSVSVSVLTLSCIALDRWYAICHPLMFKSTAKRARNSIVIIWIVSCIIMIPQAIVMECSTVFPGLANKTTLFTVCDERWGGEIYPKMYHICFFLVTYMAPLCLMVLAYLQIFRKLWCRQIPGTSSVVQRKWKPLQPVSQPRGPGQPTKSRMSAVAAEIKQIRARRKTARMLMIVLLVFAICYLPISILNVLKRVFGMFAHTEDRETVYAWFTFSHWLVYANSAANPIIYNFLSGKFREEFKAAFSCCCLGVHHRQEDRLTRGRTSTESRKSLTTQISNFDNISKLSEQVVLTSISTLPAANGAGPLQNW
Test: IP-One (IPOne) orexin receptor agonist assay in CHO cells expressing human OX2R
Format: cell-based
Conditions: for EC50: CHO cells expressing human OX2R, IP-One IP-1 detection, 2 hours incubation, four parameter logistic fit, read-out: OX2R Potency, EC50; for % of reference agonist maximal effect: human OX2R, percentage of sample raw value/mean max effect (reference compound at 1 uM with 100% activity)
Method in brief: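 CHO cells stably expressing human OX2R were stimulated with compound (10-point ½-log dilutions) for 2 h at 37 °C. IP-1 accumulation was read by HTRF (IP-One, 665/620 nm). EC50 from a four-parameter fit; % effect relative to 1 μM reference agonist control.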

Compound | EC50 [nM] | % of reference agonist maximal effect [%]
COC(=O)N1CCC[C@@H](c2n[nH]cc2C(C)C)[C@H]1CO[C@H]1CC[C@@H](c2ccccc2)CC1 (single isomer, unassigned) [Example 50] | > 10000 | 5.2
COC(=O)N1CCC[C@H](c2n[nH]cc2C#N)[C@@H]1CO[C@H]1CC[C@@H](c2ccccc2)CC1 (single isomer, unassigned) [Example 51] | 227 | 99.0
COC(=O)N1CCC[C@@H](c2n[nH]cc2C#N)[C@H]1CO[C@H]1CC[C@@H](c2ccccc2)CC1 (single isomer, unassigned) [Example 52] | > 10000 | 0
COC(=O)N1CCC[C@@H](c2n[nH]cc2CO)[C@H]1CO[C@H]1CC[C@@H](c2ccccc2)CC1 (single isomer, unassigned) [Example 54] | > 10000 | 15.7
COC(=O)N1CCC[C@H](c2n[nH]cc2C(F)F)[C@@H]1CO[C@H]1CC[C@@H](c2ccccc2)CC1 (single isomer, unassigned) [Example 55] | 97.5 | 100.8
CCNC(=O)N1CCCC(c2[nH]ncc2C)C1COC1CCC(C(C)C)CC1 (single isomer, unassigned) [Example 58, N-ethyl-2-(((4-isopropylcyclohexyl)oxy)methyl)-3-(4-methyl-1H-pyrazol-5-yl)piperidine-1-carboxamide] | > 10000 | 0
CCNC(=O)N1CCCC(c2[nH]ncc2C)C1COC1CCC(C(C)C)CC1 (single isomer, unassigned) [Example 59, N-ethyl-2-(((4-isopropylcyclohexyl)oxy)methyl)-3-(4-methyl-1H-pyrazol-5-yl)piperidine-1-carboxamide] | 593 | 98.3
CCNC(=O)N1CCCC(c2[nH]ncc2C)C1COC1CCC(C(C)C)CC1 (single isomer, unassigned) [Example 60, N-ethyl-2-(((4-isopropylcyclohexyl)oxy)methyl)-3-(4-methyl-1H-pyrazol-5-yl)piperidine-1-carboxamide] | 56.3 | 100
CCNC(=O)N1CCCC(c2[nH]ncc2C)C1COC1CCC(C(C)C)CC1 (single isomer, unassigned) [Example 61, N-ethyl-2-(((4-isopropylcyclohexyl)oxy)methyl)-3-(4-methyl-1H-pyrazol-5-yl)piperidine-1-carboxamide] | 3510 | 87.4
CCNC(=O)N1CCCC(c2nc[nH]n2)C1CO[C@H]1CC[C@@H](C(C)C)CC1 (single isomer, unassigned) [Example 62, N-ethyl-2-((((CIS)-4-isopropylcyclohexyl)oxy)methyl)-3-(1H-1,2,4-triazol-3-yl)piperidine-1-carboxamide] | > 10000 | 11.9
CCNC(=O)N1CCCC(c2nc[nH]n2)C1CO[C@H]1CC[C@@H](C(C)C)CC1 (single isomer, unassigned) [Example 63, N-ethyl-2-((((CIS)-4-isopropylcyclohexyl)oxy)methyl)-3-(1H-1,2,4-triazol-3-yl)piperidine-1-carboxamide] | 334 | 100.2
COC(=O)N1CCCC(c2nc(O)sc2Cl)C1COC1CCC(c2ccccc2)CC1 (single isomer, unassigned) [Example 67, Methyl 3-(5-chloro-2-hydroxythiazol-4-yl)-2-(((4-phenylcyclohexyl)oxy)methyl)piperidine-1-carboxylate] | 227 | 99.9
COC(=O)N1CCCC(c2nc(O)sc2Cl)C1COC1CCC(c2ccccc2)CC1 (single isomer, unassigned) [Example 68, Methyl 3-(5-chloro-2-hydroxythiazol-4-yl)-2-(((4-phenylcyclohexyl)oxy)methyl)piperidine-1-carboxylate] | 6980 | 27.6
O=C(C1CC1)N1CCC[C@H](c2cc[nH]n2)[C@@H]1CO[C@H]1CC[C@@H](c2ccccc2)CC1 (single isomer, unassigned) [Example 71, cyclopropyl((CIS)-2-((((CIS)-4-phenylcyclohexyl)oxy)methyl)-3-(1H-pyrazol-3-yl)piperidin-1-yl)methanone] | 457 | 82.9
CC[C@H]1C[C@@H]1C(=O)N1CCC[C@H](c2cc[nH]n2)[C@@H]1COC1CCC(c2ccccc2)CC1 (stereo in doubt) [Example 90, 5-((CIS)-1-((TRANS)-2-ethylcyclopropane-1-carbonyl)-2-((((CIS)-4-phenylcyclohexyl)oxy)methyl)piperidin-3-yl)-1H-pyrazol-2-ium 2,2,2-trifluoroacetate] | 1140 | 90.7
COC(=O)N1CCC[C@H](c2n[nH]cc2C)[C@@H]1COC1CC=C(c2cccc(F)c2)CC1 (stereo partly drawn) [Example 13, methyl (CIS)-2-((((S)-3′-fluoro-2,3,4,5-tetrahydro-[1,1′-biphenyl]-4-yl)oxy)methyl)-3-(4-methyl-1H-pyrazol-3-yl)piperidine-1-carboxylate] | 4750 | 84.6
CCNC(=O)N1CCC[C@H](c2cc[nH]n2)[C@@H]1CO[C@H]1CC[C@@H](c2ccccc2)CC1 [Example 17, (2R,3S)-N-ethyl-2-((((CIS)-4-phenylcyclohexyl)oxy)methyl)-3-(1H-pyrazol-3-yl)piperidine-1-carboxamide] | 27.8 | 100.1
CCNC(=O)N1CCC[C@@H](c2cc[nH]n2)[C@H]1CO[C@H]1CC[C@@H](c2ccccc2)CC1 [Example 19, (2S,3R)-N-ethyl-2-((((CIS)-4-phenylcyclohexyl)oxy)methyl)-3-(1H-pyrazol-3-yl)piperidine-1-carboxamide] | 4800 | 63.1
COC(=O)N1CCCC(c2ccn[nH]2)C1CO[C@H]1CC[C@@H](c2c(F)ccc(F)c2F)CC1 (stereo partly shown) [Example 29] | 1360 | 81.4
CCNC(=O)N1CCCC(c2ccn[nH]2)C1CO[C@H]1CC[C@@H](c2c(F)ccc(F)c2F)CC1 (stereo partly shown) [Example 33] | 47.2 | 100.3
O=C(NCC(F)(F)F)N1CCCC(c2ccn[nH]2)C1CO[C@H]1CC[C@@H](c2c(F)ccc(F)c2F)CC1 (stereo partly shown) [Example 34] | 17.8 | 99.9
O=C(OCC(F)F)N1CCCC(c2ccn[nH]2)C1CO[C@H]1CC[C@@H](c2c(F)ccc(F)c2F)CC1 (stereo partly drawn) [Example 35, 2,2-Difluoroethyl 3-(1H-pyrazol-5-yl)-2-((((CIS)-4-(2,3,6-trifluorophenyl)cyclohexyl)oxy-)methyl)piperidine-1-carboxylate] | 542 | 97.9
COC(=O)N1[C@H](C)CC(c2[nH]ncc2C)[C@@H]1CO[C@H]1CC[C@@H](c2ccccc2)CC1 (stereo partly drawn) [Example 36, Methyl (2R,5R)-5-methyl-3-(4-methyl-1H-pyrazol-5-yl)-2-((((CIS)-4-phenylcyclohexyl)oxy)methyl)pyrrolidine-1-carboxylate] | 1030 | 96.3
COC(=O)N1[C@H](C)CC(c2ccn[nH]2)[C@@H]1CO[C@H]1CC[C@@H](c2ccccc2)CC1 (stereo partly drawn) [Example 37, Methyl (2R,5R)-5-methyl-2-((((CIS)-4-phenylcyclohexyl)oxy)methyl)-3-(1H-pyrazol-5-yl)pyrrolidine-1-carboxylate] | 5110 | 85.3
CCNC(=O)N1C(C)CCC(c2ccn[nH]2)C1COC1CCC(C(C)C)CC1 (stereo not shown) [Example 38, N-ethyl-2-(((4-isopropylcyclohexyl)oxy)methyl)-6-methyl-3-(H-pyrazol-5-yl)piperidine-1-carboxamide] | 241 | 95.0
CCc1c[nH]nc1[C@@H]1CCCN(C(=O)OC)[C@@H]1CO[C@H]1CC[C@@H](c2ccccc2)CC1 [Example 44, (2S,3R)-3-(4-ethyl-1H-pyrazol-3-yl)-2-((((CIS)-4-phenylcyclohexyl)oxy)methyl)piperidine-1-carboxylate] | > 10000 | 9.5
COC(=O)N1CCC[C@H](c2n[nH]cc2CO)[C@@H]1CO[C@H]1CC[C@@H](c2ccccc2)CC1 [Example 53] | 104 | 100.5
COC(=O)N1CCC[C@@H](c2n[nH]cc2C(F)F)[C@H]1CO[C@H]1CC[C@@H](c2ccccc2)CC1 [Example 56, Methyl (2S,3R)-3-(4-(difluoromethyl)-pH-pyrazol-3-yl)-2-((((CIS)-4-phenylcyclohexyl)oxy)methyl) piperidine-1-carboxylate] | 3070 | 66.9
C[C@H]1C[C@H]1C(=O)N1CCC[C@H](c2cc[nH]n2)[C@@H]1COC1CCC(c2ccccc2)CC1 (stereo partly drawn) [Example 69, ((CIS)-2-methylcyclopropyl)((2R,3S)-2-((((1s,4S)-4-phenylcyclohexyl)oxy)methyl)-3-(1H-pyrazol-3-yl)piperidin-1-yl)methanone] | 278 | 99.2
